Measurements: ChEMBL document CHEMBL1130085, “Substituted 3-(phenylsulfonyl)-1-phenylimidazolidine-2,4-dione derivatives as novel nonpeptide inhibitors of human heart chymase” (J Med Chem, 1997)

Legend:
[1] = target: T1, Chymase (Homo sapiens, UniProt P23946); assay: Inhibitory activity against human heart chymase in vitro.
T1 sequence (P23946 whole entry): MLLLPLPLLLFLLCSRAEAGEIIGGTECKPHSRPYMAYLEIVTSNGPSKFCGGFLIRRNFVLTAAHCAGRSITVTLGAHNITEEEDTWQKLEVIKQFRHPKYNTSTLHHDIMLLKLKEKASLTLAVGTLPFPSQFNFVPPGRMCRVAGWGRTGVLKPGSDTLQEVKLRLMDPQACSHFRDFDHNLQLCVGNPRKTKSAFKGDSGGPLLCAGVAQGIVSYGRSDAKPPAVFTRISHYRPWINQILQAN

[2] = target: T2, Cathepsin G (Homo sapiens, UniProt P08311); assay: Inhibitory activity against human neutrophil cathepsin G.
T2 sequence (P08311 whole entry): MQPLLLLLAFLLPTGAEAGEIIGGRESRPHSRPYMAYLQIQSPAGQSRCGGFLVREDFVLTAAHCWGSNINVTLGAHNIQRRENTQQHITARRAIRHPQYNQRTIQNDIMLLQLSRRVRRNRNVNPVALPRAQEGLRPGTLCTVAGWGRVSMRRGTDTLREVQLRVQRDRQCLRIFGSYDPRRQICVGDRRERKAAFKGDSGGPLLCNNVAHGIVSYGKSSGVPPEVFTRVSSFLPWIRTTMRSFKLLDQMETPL

[3] = target: Chymotrypsinogen A (Bos taurus, UniProt P00766); assay: Inhibitory activity against bovine pancreas alpha-chymotrypsin in vitro

SMILES | IC50 [1] | IC50 [2] | IC50 [3]
Cc1ccccc1S(=O)(=O)N1C(=O)CN(c2ccccc2)C1=O | 1.8 µM | 1.8 µM | 1.1 µM
COc1ccc(S(=O)(=O)N2C(=O)CN(c3ccccc3)C2=O)cc1OC |  | 4.1 µM | > 100 µM
O=C1CN(c2ccccc2)C(=O)N1C(=O)c1ccc(Cl)cc1 | > 100 µM | 3 µM | 0.23 µM
O=C1CN(c2ccccn2)C(=O)N1S(=O)(=O)c1ccc(Cl)cc1 | 18 µM |  | > 100 µM
O=C1CN(c2ccccc2Cl)C(=O)N1S(=O)(=O)c1ccc(Cl)cc1 | 0.22 µM | 2 µM | 20 µM
COC(=O)Cc1ccc(S(=O)(=O)N2C(=O)CN(c3ccccc3)C2=O)cc1 |  | 6.5 µM | 11 µM
O=C1CN(c2ccccc2)C(=O)N1S(=O)(=O)c1ccc(Cl)cc1 |  |  | 1.1 µM
COc1ccc(S(=O)(=O)N2C(=O)CN(c3ccccc3)C2=O)cc1 |  | 4.2 µM | 5.8 µM
O=C(O)c1cccc(S(=O)(=O)N2C(=O)CN(c3ccccc3)C2=O)c1 |  | 1 µM | 8.5 µM
O=C1CN(c2ccccc2)C(=O)N1S(=O)(=O)c1ccccc1 |  | 4.5 µM | 1.4 µM
O=C1CN(c2ncccn2)C(=O)N1S(=O)(=O)c1ccc(Cl)cc1 | 33 µM |  | 52 µM
COc1ccc(S(=O)(=O)N2C(=O)CN(c3ccc(C)c(C)c3)C2=O)cc1OC | 0.022 µM | > 100 µM | > 100 µM
O=C(OCN1C(=O)CN(c2ccccc2)C1=O)c1ccccc1 | > 100 µM | > 100 µM | > 100 µM
O=C1CN(c2ccccc2)C(=O)N1S(=O)(=O)c1ccc([N+](=O)[O-])cc1 |  | 6.5 µM | 8 µM
O=C1CN(c2cccc(Cl)c2)C(=O)N1S(=O)(=O)c1ccc(Cl)cc1 | 0.066 µM |  | 0.2 µM
COC(=O)c1cccc(S(=O)(=O)N2C(=O)CN(c3ccccc3)C2=O)c1 |  |  | 1.7 µM
O=C1CN(c2ccccc2)C(=O)N1S(=O)(=O)c1ccccc1Cl | 1.1 µM | 2.2 µM | 1.2 µM
O=C(O)c1cccc(N2CC(=O)N(S(=O)(=O)c3ccc(Cl)cc3)C2=O)c1 |  | > 100 µM | > 100 µM
COc1ccc(N2CC(=O)N(S(=O)(=O)c3ccc(Cl)cc3)C2=O)cc1OC | 14 µM | > 100 µM | > 100 µM
CN1CCN(C(=O)c2ccc(S(=O)(=O)N3C(=O)CN(c4ccccc4)C3=O)cc2)CC1 | 3.3 µM |  | 6.4 µM
O=C1CN(c2ccccc2)C(=O)N1S(=O)(=O)c1cccc(Cl)c1 | 0.13 µM | 2.5 µM | > 100 µM
O=C1CN(c2ccccc2)C(=O)N1S(=O)(=O)c1ccc(F)cc1 | 0.37 µM | 1.5 µM | 2.6 µM
O=C1CN(c2ccc(Cl)c(Cl)c2)C(=O)N1S(=O)(=O)c1ccc(Cl)c(Cl)c1 | 0.17 µM | 3.7 µM | 3.7 µM

SMILES | IC50 [1] | IC50 [2] | IC50 [3]
O=C1CN(c2ccccc2)C(=O)N1S(=O)(=O)c1ccc(Br)cc1 | 0.17 µM |  | 2.4 µM
O=C(O)c1ccc(S(=O)(=O)N2C(=O)CN(c3ccccc3)C2=O)cc1 |  | 1.9 µM | 44 µM
Cc1ccc(N2CC(=O)N(S(=O)(=O)c3ccc(Cl)cc3)C2=O)cc1C | 0.035 µM | 3.7 µM | 43 µM
Cc1ccc(N2CC(=O)N(S(=O)(=O)c3ccc(C)c(C)c3)C2=O)cc1C |  |  | > 100 µM
O=C1CN(C2CCCCC2)C(=O)N1S(=O)(=O)c1ccc(Cl)cc1 | 35 µM |  | 30 µM
Cc1ccc(S(=O)(=O)N2C(=O)CN(c3ccccc3)C2=O)cc1C | 0.03 µM |  | 2 µM
O=C1CN(c2ccccc2)C(=O)N1S(=O)(=O)c1ccc(Oc2ccccc2)cc1 |  | 3.7 µM | 8 µM
Cc1ccc(N2CC(=O)N(S(=O)(=O)c3ccc(Cl)c(Cl)c3)C2=O)cc1C | 0.02 µM |  | 63 µM
O=C1CN(c2ccccc2)C(=O)N1S(=O)(=O)Cc1ccccc1 | > 100 µM |  | 37 µM
O=C1CN(c2ccc(Cl)c(Cl)c2)C(=O)N1S(=O)(=O)c1ccc(Cl)cc1 | 0.023 µM | 22 µM | 4 µM
CN1CCN(C(=O)c2cccc(S(=O)(=O)N3C(=O)CN(c4ccccc4)C3=O)c2)CC1 | 0.9 µM | 4.8 µM | 1.4 µM
O=C1CN(c2ccccc2)C(=O)N1C(=O)c1ccccc1 | 20 µM | 7 µM | 0.048 µM
N#Cc1ccc(S(=O)(=O)N2C(=O)CN(c3ccccc3)C2=O)cc1 |  |  | 15 µM
CC(=O)Nc1ccc(N2CC(=O)N(S(=O)(=O)c3ccc(Cl)cc3)C2=O)cc1 | > 100 µM | > 100 µM | > 100 µM
O=C1CN(c2ccccc2)C(=O)N1S(=O)(=O)c1ccc(Cl)c(Cl)c1 | 0.018 µM |  | 3.8 µM
O=C(O)c1ccccc1N1CC(=O)N(S(=O)(=O)c2ccc(Cl)cc2)C1=O |  |  | 73 µM
COC(=O)Cc1cccc(S(=O)(=O)N2C(=O)CN(c3ccccc3)C2=O)c1 |  | 5.4 µM | 4 µM
O=C1CN(S(=O)(=O)c2ccc(Cl)cc2)C(=O)N1c1ccc(Cl)cc1 | > 100 µM |  | > 100 µM
N#Cc1cccc(S(=O)(=O)N2C(=O)CN(c3ccccc3)C2=O)c1 |  |  | 0.73 µM
O=C(O)c1ccc(N2CC(=O)N(S(=O)(=O)c3ccc(Cl)cc3)C2=O)cc1 |  | > 100 µM | 42 µM
CN1CCN(C(=O)c2ccc(N3CC(=O)N(S(=O)(=O)c4ccc(Cl)cc4)C3=O)cc2)CC1 | 27 µM | > 100 µM | > 100 µM
COC(=O)c1ccc(S(=O)(=O)N2C(=O)CN(c3ccccc3)C2=O)cc1 |  |  | 1.8 µM
O=C1CN(c2ccccc2Oc2ccccc2)C(=O)N1S(=O)(=O)c1ccc(Cl)cc1 |  | 5.9 µM | 37 µM
